Data on 2 compounds can be found in US20230157994A1 (priority 2020, published 2023).

“And” between values parts separate entries of the source, which are not always exact repeats. Identical values can stand only once. Like-named read-outs stand apart in the source and are kept apart here.

Assay [1] relates to severe COVID-19 patients. The settings on record: estimate for sample size.
From the text: Sample size is based on the following assumptions: • 1. Current estimate of the proportion of patients in ICU with critical stage COVID-19 and requiring mechanical ventilation (50% as per Bichat and Bordeaux CHUs), • 2. […] A two-sided analysis, with α=0.05.
Assay [2] has as its system COVID-19-related ARDS patients. The settings on record: hypothesis; in combination with best available treatment.
Method: Ventilator-free days (VFDs) at 28 days are one of several organ failure-free outcome measures to quantify the efficacy of therapies and interventions. VFDs are typically defined as follows: • a. VFDs=0 if subject dies within 28 days of mechanical ventilation. • b. VFDs=28−x if successfully liberated from ventilation x days after initiation. • c. VFDs=0 if the subject is mechanically ventilated for >28 days.
4 groups of patients (placebo, pleri 10, pleri 20, pleri 40 μg/kg bid) will be planned.
In assay [3] the test system is SARS-CoV-2. The conditions noted are these: for body weight loss kinetic: versus vehicle mice.
Assay [4] concerns Citrullinated histone H3. The conditions noted are these: for effect on level of citrullinated histone H3 / NETosis: RNA virus infected mice, 3 mg/kg/day, versus infected vehicle group.
Assay [5] concerns neutrophils (DAPI-CD16+, DAPI-CD16+CXCR4-, DAPI-CD16+CXCR4+). The settings on record: for % of neutrophils' migration decrease with plerixafor vs vehicle in response to COVID-19 serum: DAPI-CD16+CXCR4+ cells.
Method: Neutrophils were isolated from 6 patients of the COBRA cohort (COPD and asthma patient cohort). […] Cells were next plated in the upper compartment of a modified Boyden chamber for migration assay in 0.2 mL HBSS, containing 0.5% HSA medium. HBSS, 0.5% HSA or HBSS, 0.5% HSA+sera (10% diluted) from severe COVID-19 patients were added to the bottom compartment of each well. […] Cell identities and counts were analysed by FACS method.
Neutrophils are isolated according to the method described by Hard, et al., (Infiltrated neutrophils acquire novel chemokine receptor expression and chemokine responsiveness in chronic inflammatory lung diseases. J. Immunol. Baltim. Md 1950. 181:8053-8067). Neutrophils were freshly isolated from blood of COPD patients over isotonic Percoll density gradient. The neutrophils were recovered, washed twice with HBSS containing 20 mM HEPES and 0.1% (w/v) BSA and resuspended in HBSS, 20 mM HEPES, and 0.1% (w/v) BSA at a cell concentration of 5×10^5 in 0.2 mL.
Neutrophil migration was assessed using a Boyden chamber assay, using transwell inserts (pore size 8 um). A total of 5x 10^5 neutrophils cells in 0.2 mL HBSS, containing 0.5% HSA were added to the upper compartment of each well. […] HBSS, 0.5% HSA and Sera (10% diluted) from severe COVID-19 patients was added to the bottom compartment of each well.
After neutrophils' recovery from lower chamber, FACS tubes were centrifuged 5 min, 4° C. at 500 g. Fixation and permeabilization of cells were as follow: 0.3 mL of Cytofix/Cytoperm were added for 15 min (tube are protected from light). Next, 400 μL of permeabilization buffer was added and cells were processed for centrifugation for 5 min, 4° C., 400 g. Supernatant was discarded, and cells were processed for antibody staining. Cells were incubated 40 min at 4° C. with anti-CD16 to account for all neutrophils, anti-CXCR4 to specifically account for CXCR4 expressing neutrophils. Next, 400 μL of permeabilization buffer was added, and cells were centrifuged 5 min at 4° C., 400 g. After supernatant was discarded, cells were incubated with appropriate secondary antibody for 40 min at 4° C. Finally, cells were incubated with DAPI at 4° C. After DAPI incubation (to exclude dying cells from FACS counts), 400 μL of PBS 1× were added and cells were centrifuged for 5 min at 4° C., 400 g. Cells were resuspended in 300 μL of PBS 1×. To obtain absolute values of migratory cells, flow cytometric counts for each condition were obtained during a constant predetermined time period (1 min).
Each condition treatment was run in duplicate.
The test system of assay [6] is ARDS patients. The conditions noted are these: at days 28; cited from earlier work.

On to `c1cc(CN2CCCNCCNCCCNCC2)ccc1CN1CCCNCCNCCCNCC1` [plerixafor], for which the “decrease of proportion of invasive mechanical ventilation versus placebo” value in assay [1] was 46%. For the same compound, the “proportion of invasive mechanical ventilation in patients with severe COVID-19” value in assay [1] (reduced from 50%, 30 μg/kg/hour continuous IV 7 days) is reported as 27%. Also, the “increase of VFDs (ventilator-free days at 28 days)” value in assay [2] came out at 2 days. For the same compound, the “body weight loss kinetic” value is recorded as “reduced the mice body weight loss kinetic” in assay [3] (10 mg/kg/day) and “significant reduction of body weight loss kinetic” in assay [3] (10 mg/kg/day, listed as Plerixafor). For the same compound, the “time of death (euthanasia at body weight loss superior to 20%)” value in assay [3] (10 mg/kg/day, versus vehicle, Wilcoxon test p<0.05) is “Significant difference in time of death”. Also, the “average body weight loss” value in assay [3] (day 5 post infection, 10 mg/kg/day twice daily, vehicle 20.43%±2.88%) is reported as 17.6%±1.28%. Besides, the “fraction of treated mice with improved survival” value in assay [3] (lethal dose of SARS-CoV-2) is on record as 44,44%. In assay [3] (lethal dose of SARS-CoV-2, versus vehicle), this compound returned an improvement of survival of 20%. The “effect on level of citrullinated histone H3 / NETosis” value in assay [4] is “significantly reduced”; in assay [4] (listed as Plerixafor), “slightly decreased”. Also, the “Mean Citrullinated Histone H3 in plasma” value in assay [4] (day 7, RNA virus infected, 3 mg/kg/day SC, infected vehicle 2.124, non infected 0.113) was 1.428±0.799 absorbance at 450 nm and 1.428 absorbance at 450 nm. In assay [5], the “decrease of CXCR4+ neutrophils migration (mean of 6 patients)” value is reported as 75.8%±5.9%. The “migration of CXCR4 negative neutrophils (DAPI-CD16+CXCR4-)” value in assay [5] is recorded as “no significant effect”. Moreover, the “migration of CXCR4 positive neutrophils (DAPI-CD16+CXCR4+)” value in assay [5] was “strongly and reproducibly decreased”. The “serum-induced recruitment of neutrophils total population (DAPI-CD16+)” value in assay [5] is listed as “did not significantly reduce”. Moreover, the “% of neutrophils' migration decrease with plerixafor vs vehicle in response to COVID-19 serum” value stood at 86.6% in assay [5] (patient Sg3, 25 μg/mL); 72.9% in assay [5] (patient Sg87, 25 μg/mL); 75.5% in assay [5] (patient Sg88, 25 μg/mL); 70.0% in assay [5] (patient Sg89, 25 μg/mL); 77.6% in assay [5] (patient Sg92, 25 μg/mL); 72.4% in assay [5] (patient Sg95, 25 μg/mL).
“Tocilizumab: an anti-IL6 human monoclonal antibody marketed by Genentech under the tradename Actemra for treating rheumatoid arthritis”: the “VFDs (ventilator-free days)” value in assay [6] was 14.86+/−5.36.
